The text below walks through data of PubChem BioAssay (NCI).

Test systems include MDA-MB-435; SN12C renal; HS 578T breast; NCI/ADR-RES ovarian; NCI-H226 lung; DU-145 prostate; OVCAR-3 ovarian; SNB-19 CNS; K-562 leukemia; U251 CNS.
Assay in all cases: NCI-60 cell line screen, 48 h

Structures are written as SMILES. “And” between values parts separate entries of the source, which are not always exact repeats. Equal values may be shown once.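 Method: 48-hour compound exposure of cells in 96-well plates, five concentrations, linear interpolation of endpoints. GI50 marks 50% less growth. TGI denotes the concentration required for complete inhibition of growth.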

As for `C[C@@H]1C[C@@]2(O[C@@H]2C)C(=O)O[C@@H]2CCN3CC=C(COC(=O)[C@]1(C)O)[C@H]23`, the TGI in the experiment on MDA-MB-435, in the experiment on SN12C renal, in the experiment on HS 578T breast, in the experiment on NCI/ADR-RES ovarian, in the experiment on NCI-H226 lung and in the experiment with DU-145 prostate was > 100 µM in each case. In addition, the TGI in the experiment with OVCAR-3 ovarian, with SNB-19 CNS, with K-562 leukemia and with U251 CNS was > 100 µM in each case.

With `S=C(Nc1ccccc1)N(Cc1ccccc1)c1ccccc1`, the TGI in the experiment with MDA-MB-435 was 49.5 µM; with SN12C renal, > 100 µM; with HS 578T breast it was > 100 µM; in the experiment on NCI/ADR-RES ovarian, > 100 µM; in the experiment with NCI-H226 lung, > 100 µM; with DU-145 prostate, 24.7 µM. Also, the TGI in the experiment with OVCAR-3 ovarian, with SNB-19 CNS, in the experiment on K-562 leukemia and in the experiment on U251 CNS was > 100 µM in each case.

As for `Oc1ccc(N=Nc2ccc(N=Nc3ccccc3)cc2)cc1`, the GI50 was 2.96 µM with MDA-MB-435; 3.95 µM in the experiment on SN12C renal; 12.4 µM with HS 578T breast; 3.67 µM in the experiment with NCI/ADR-RES ovarian; 18.3 µM in the experiment on NCI-H226 lung; 2.09 µM in the experiment with DU-145 prostate. For the same compound, the GI50 was 1.71 µM in the experiment with OVCAR-3 ovarian, 6.39 µM in the experiment with SNB-19 CNS, 0.615 µM with K-562 leukemia and 10.4 µM in the experiment on U251 CNS. Moreover, the TGI in the experiment on MDA-MB-435 turned out to be 14.7 µM; in the experiment on SN12C renal, 17.2 µM; in the experiment with HS 578T breast, 51 µM; in the experiment on NCI/ADR-RES ovarian, 39.5 µM; with NCI-H226 lung, 48.2 µM; with DU-145 prostate, 12.2 µM. For the same compound, the TGI is 4.77 µM in the experiment with OVCAR-3 ovarian, 19.7 µM in the experiment with SNB-19 CNS, 12.7 µM in the experiment on K-562 leukemia and 26.9 µM in the experiment with U251 CNS.

As to `O=P1(O)c2ccccc2Nc2cc(C(F)(F)F)ccc21`, the TGI in the experiment on MDA-MB-435, in the experiment with SN12C renal, with HS 578T breast, with NCI/ADR-RES ovarian, in the experiment on NCI-H226 lung and with DU-145 prostate was > 100 µM in each case. In addition, the TGI with OVCAR-3 ovarian, with SNB-19 CNS, in the experiment with K-562 leukemia and in the experiment with U251 CNS was > 100 µM throughout.

On to `CCCCCN(CCCCC)CC(O)c1cc2c(c3ccccc13)CCCC2` (stereo not given), for which the GI50 in the experiment on MDA-MB-435 was 7.68 µM and 13.2 µM; in the experiment with SN12C renal it was 6.12 µM and 13.8 µM; in the experiment with HS 578T breast, 8.51 µM; with NCI/ADR-RES ovarian, 6.44 µM and 12.3 µM; with NCI-H226 lung it was 5.64 µM and 11 µM; in the experiment with DU-145 prostate it was 10.1 µM and 21.4 µM. The GI50 in the experiment on OVCAR-3 ovarian was 6.22 µM and 10.5 µM; with SNB-19 CNS it was 11 µM and 17.9 µM; in the experiment with K-562 leukemia, 2.56 µM and 16.3 µM; with U251 CNS, 6.33 µM and 11.5 µM. Moreover, the TGI in the experiment on MDA-MB-435 was 21.9 µM and 36.5 µM; with SN12C renal, 19.8 µM and 30 µM; with HS 578T breast, 23.9 µM; in the experiment with NCI/ADR-RES ovarian, 20.1 µM and 27.5 µM; with NCI-H226 lung, 20.3 µM and 29.2 µM; in the experiment with DU-145 prostate, 21.7 µM and 48.1 µM. The TGI in the experiment with OVCAR-3 ovarian was 18.7 µM and 24.1 µM; in the experiment with SNB-19 CNS it was 22.9 µM and 39.4 µM; in the experiment on K-562 leukemia, 10.9 µM and > 100 µM; in the experiment with U251 CNS it was 20.3 µM and 29.6 µM.

Consider `N#Cc1nc2cc(F)c(F)cc2nc1-c1ccc(Cl)cc1`, for which the GI50 is 17.5 µM with MDA-MB-435; 6.83 µM with SN12C renal; 1.72 µM with HS 578T breast; 10.3 µM in the experiment on NCI/ADR-RES ovarian; 3.44 µM in the experiment on NCI-H226 lung; 22.4 µM with DU-145 prostate. In addition, the GI50 was 2.24 µM in the experiment with OVCAR-3 ovarian, 14.5 µM in the experiment on SNB-19 CNS, 2.99 µM in the experiment with K-562 leukemia and 10.4 µM in the experiment on U251 CNS. The TGI was 39.1 µM in the experiment on MDA-MB-435; 34.8 µM with SN12C renal; 4.43 µM with HS 578T breast; > 81.1 µM in the experiment with NCI/ADR-RES ovarian; > 63.2 µM with NCI-H226 lung; > 82.6 µM with DU-145 prostate. In addition, the TGI is 8.28 µM in the experiment with OVCAR-3 ovarian, > 85.9 µM in the experiment on SNB-19 CNS, > 27.8 µM in the experiment on K-562 leukemia and 25 µM in the experiment on U251 CNS.

Consider `CNc1nc(N(C)C)nc(N(C)C)n1`, for which the TGI in the experiment with MDA-MB-435 is 4420 µM; with SN12C renal, > 100 µM and 3960 µM; in the experiment on HS 578T breast, 4450 µM; in the experiment on NCI/ADR-RES ovarian, 2650 µM; in the experiment on NCI-H226 lung, 2530 µM; in the experiment with DU-145 prostate, 5040 µM. For the same compound, the TGI was > 100 µM and 2300 µM in the experiment with OVCAR-3 ovarian; > 100 µM and 3780 µM in the experiment on SNB-19 CNS; > 100 µM and 3230 µM in the experiment on K-562 leukemia; > 100 µM and 2950 µM in the experiment on U251 CNS. Further, the GI50 is > 100 µM and 2050 µM with SN12C renal; > 100 µM and 981 µM in the experiment with OVCAR-3 ovarian; > 100 µM and 1210 µM with SNB-19 CNS; > 100 µM and 831 µM in the experiment on K-562 leukemia; > 100 µM and 1150 µM in the experiment with U251 CNS.

Take `CN(C)CCNC(=O)c1cc2c3ccccc3[nH]c2c2ncccc12`: the GI50 in the experiment on MDA-MB-435 is 2.89 µM; in the experiment on SN12C renal, 7.36 µM; with HS 578T breast, 3.57 µM; with NCI/ADR-RES ovarian it was 22.5 µM; in the experiment with NCI-H226 lung, 9.8 µM; in the experiment with DU-145 prostate, 11.5 µM. The GI50 in the experiment with OVCAR-3 ovarian is 0.0254 µM; in the experiment on SNB-19 CNS, 14.7 µM; in the experiment with K-562 leukemia, 9.05 µM; in the experiment on U251 CNS it was 12.2 µM. Besides, the TGI in the experiment with MDA-MB-435 was 15.4 µM; in the experiment with SN12C renal it was 39.2 µM; with HS 578T breast, 28.1 µM; in the experiment on NCI/ADR-RES ovarian it was > 100 µM; with NCI-H226 lung, 39.6 µM; with DU-145 prostate, 30.7 µM. Besides, the TGI amounted to 16.8 µM in the experiment on OVCAR-3 ovarian, 93.2 µM in the experiment on SNB-19 CNS, 26.2 µM with K-562 leukemia and 37 µM in the experiment with U251 CNS.
